According to publication PMC9332833 (Cancers, 2022):

Key:
[1] = Solubility in selected solvents; assay type: physicochemical
Text: Supplementary Information
Table S1. Solubility of BK124.1 in selected solvents. In bold are marked solvents in which BK124.1 is soluble and stable, adequate for the administration in vivo.
Solvent Formulation Comments
Water 0.9% NaCl insoluble
10% ethanol in 0.9% NaCl insoluble
Cyclodextrin ɑ-cyclodextrin in water insoluble
β-cyclodextrin in water insoluble
γ-cyclodextrin in water insoluble […]
DMSO < 100% in water insoluble
Surfactant 20% Solutol HS 15 in 0.9% NaCl insoluble
20% Solutol HS 15 in PBS insoluble
20% Solutol HS 15, 10% ethanol in water 0.9% NaCl soluble/stable
10% Solutol HS 15, 10% ethanol in water 0.9% NaCl soluble/stable

[2] = tested on: K562 cells; test: Immunoblotting of CML signaling proteins; assay type: cell-based, human; conditions: 5 µM
Protocol: K562 cells were plated at a concentration of 1–2 × 10^5 cells/mL in a 6-well plate. After 24 h of pre-incubation, BK124.1 or DMSO was added and cells were incubated for a specified time, after which cells were lysed with RIPA buffer (Sigma-Aldrich, St. Louis, MO, USA) and supplemented with c0mplete Protease Inhibitor (Roche, Basel, Switzerland) and PhosSTOP (Roche, Basel, Switzerland). Protein concentration was measured using Pierce BCA Protein Assay Kit (Thermo Fisher Scientific, Waltham, MA, USA) and adjusted to contain equal amount of protein (20 µg) in equal volume. Protein lysates were separated by SDS-PAGE electrophoresis (TGX StainFree, Bio-Rad, Hercules, CA, USA) and transferred onto the PVDF membranes (AppliChem GmbH ITW Reagents, Darmstadt, Germany). Membranes were blocked with 5% non-fat powdered milk, then incubated with primary antibodies overnight at 4 °C followed by HRP-conjugated antibodies (Supplementary Methods). Blots were developed using Clarity Western ECL Substrate and analyzed with ChemiDoc XRS+ (Bio-Rad, Hercules, CA, USA). Protein levels normalized to controls were determined using ImageJ software.
K562 cells were plated at a concentration of 1.5 × 10^5 cells/mL in a 6-well plate. After 24 h pre-incubation, BK124.1 in DMSO was added and incubated for the specified time. Next, cytosolic and nuclear cell fractions were separated as described. […]

[3] = Stability of BK124.1 concentrate for injection; assay type: physicochemical; conditions: 1 mg BK124.1 in 50% Solutol HS 15/50% ethanol, 30-36 °C
Text: Additional file 2: Supplementary methods
The antibodies (Ab) used in the flow cytometry and immunoblotti ng experiments are listed according to the targeted protein and the vendor. Antibodies: BD Transduction Laboratories - p38 (ref. 612288), p-p38 (ref. 612289); Cell Signalling Technologies - c-Abl (ref. 2862), Akt (pan) (C67E7) (ref. 4691), STAT5 […]
(ref. 9102); Santa Cruz Biotechnology - Lamin B1 (A11) (ref. sc-377000), JNK, (ref. sc-7345), p-JNK (ref. sc-6254); Sigma - α-tubulin (ref. T-6074). Biolegend, San Diego, CA, USA - CD34 (CD34-APC), CD38 (anti- […]
BK124.1 preparation for injection
In the first step, 50 µL of Solutol HS 15 and 50 µL of anhydrous ethanol 99.8% were added to 1 mg of BK124.1, to obtain a solution of 50% Solutol HS 15/50% ethanol. This solution was shaken (1-2 h) at 30-40 °C until BK124.1 was completely dissolved. This solution was stable for 48 hours at temperatures between 30-36 °C. This concentrate is sticky, has poor filtration and portioning properties, and so cannot be administered intravenously or intraperitoneally without dilution. Therefore, in the second step, the prepared concentrate was diluted with aqua pro injectione to obtain a concentration of 10% Solutol HS 15/10% ethanol. […]

[4] = Blood morphology in K562 xenograft mice; conditions: for GRA / MON / HGB / WBC / MPV / RBC / RDW / MCH / MCHC / HCT / MCV / LYMP: N=4; for GRA / MON / LYMP: standard range 0.0-99.0; for HGB: standard range 1.1-18; for WBC: standard range 3.0-15; for MPV: standard range 4.6-7.3; for RBC: standard range 5.0-12; for RDW: standard range 11.5-14.5; for MCH: standard range 12-24.5; for MCHC: standard range 21.6-42; for HCT: standard range 36-52; for MCV: standard range 44-69
Protocol: (§1) Eight-week-old female NOD.Cg-Prkdcscid Il2rgtm1Wjl/SzJ NSG mice (Jackson Laboratory, Bar Harbor, ME, USA) were injected subcutaneously into the dorsal fold with 1 × 10^6 K562 cells of the human chronic myeloid leukemia (CML) line in a final volume of 100 µL (0.5% of the mouse weight). On day 3 after cell administration, mice were randomly assigned to each group, and on days 4–17 of the experiment, the selected tested compounds and control solutions were administered intraperitoneally or orally. During the experiment, subcutaneous tumors and body weight were measured daily. Tumor growth during the experiment was measured with an electronic display caliper. The theoretical tumor volume [mm], was calculated according to the formula (a^2 × b) * 0.5, where a is the shorter tumor axis [mm] and b is the longer tumor axis [mm]. On day 26, the experiment was terminated: blood was collected and analyzed for cellular morphology and standard biochemistry metabolites. Tumors were weighed.
(§2) Control and treated mice were grouped according to the tested compounds and the scheme of their administrations (doses, administration frequencies, routes of administration) in the CML xenogeneic model obtained by subcutaneous transplantation of 1 × 10^6 cells of the human CML blast line K562 into mice NOD.Cg-Prkdcscid Il2rgtm1Wjl/SzJ (NSG).
(§3) Hydroxyurea K562 500 mg/kg, IP Aqua pro 1 x daily 8

[5] = Body and organ weights in K562 xenograft mice; conditions: for Brain weight / Heart weight / Kidneys weight / Liver weight / Lung weight / Splean weight: mean ± SD, N=4
Protocol: as §1, §2, §3

[6] = 20 mg/kg IP daily 14 days, mean ± SD
[7] = 30 mg/kg IP daily 14 days, mean ± SD
[8] = 30 mg/kg IP daily 14 days, mean

## CCC12C(=O)C(CC)(C(c3ccccc3)=C1c1ccccc1)C1C(=O)N(CC(O)CNC(C)C)C(=O)C12 (centres unmarked) [BK124.1, 4-[2-hydroxy-3-(propan-2-ylamino)propyl]-1,7-diethyl-8,9-diphenyl-4-azatricyclo [5.2.1.02,6]dec-8-ene-3,5,10-trione]
[1]; 0.9% NaCl
  Solubility: insoluble
[1]; 10% Solutol HS 15, 10% ethanol in water 0.9% NaCl
  Solubility: soluble/stable
[1]; 10% ethanol in 0.9% NaCl
  Solubility: insoluble
[1]; 20% Solutol HS 15, 10% ethanol in water 0.9% NaCl
  Solubility: soluble/stable
[1]; 20% Solutol HS 15 in 0.9% NaCl
  Solubility: insoluble
[1]; 20% Solutol HS 15 in PBS
  Solubility: insoluble
[1]; DMSO 100%
  Solubility: soluble/stable
[1]; DMSO < 100% in water
  Solubility: insoluble
[1]; ɑ-cyclodextrin in water
  Solubility: insoluble
[1]; β-cyclodextrin in water
  Solubility: insoluble
[1]; γ-cyclodextrin in water
  Solubility: insoluble
[2]; first changes after 4 and 8 h
  Level of BCR-ABL1, STAT5, AKT, mTOR and NF-κB proteins: decrease in the level
[2]; from 4 h, maximum after 8 h, mainly nuclear fraction
  Level of FOXO3A and p21waf1/cip1 proteins: increase in the level
[3]
  Time the solution was stable: 48 h
[4]; [6]
  GRA: 39.3±9.8%
  MON: 17.8±2.8%
  HGB: 12.3 ± 0.7 g/dL
  WBC: 14.9±4.7 103/μL
  MPV: 5.0±0.2 μm3
  RBC: 7.1±0.4 106/μL
  RDW: 13.1±0.4%
  MCH: 17.3 ± 0.3 pg
  MCHC: 32.4 ± 0.3 g/dL
  HCT: 38.0±2.3%
  MCV: 53.3±0.5
[4]; 20 mg/kg IP daily 14 days, mean
  LYMP: 42.9%
[4]; [7]
  MON: 15.4±3.8%
  HGB: 13.5 ± 0.5 g/dL
  WBC: 10.5±5.0 103/μL
  MPV: 5.1±0.2 μm3
  RBC: 7.9±0.2 106/μL
  RDW: 12.9±0.1%
  MCH: 17.2 ± 0.4 pg
  MCHC: 32.4 ± 0.6 g/dL
  HCT: 41.7±0.9%
  MCV: 52.8±1.0
[4]; [8]
  GRA: 43.1%
  LYMP: 41.6%
[4]; doses as in Table S3
  Blood morphology parameters: within the norm
[5]; 20 mg/kg IP daily 14 days
  Brain weight: 0.47 ± 0.02 g
  Heart weight: 0.10 ± 0.00 g
  Kidneys weight: 0.26 ± 0.03 g
  Liver weight: 1.09 ± 0.10 g
  Lung weight: 0.24 ± 0.10 g
  Splean weight: 0.03 ± 0.02 g
[5]; 30 mg/kg IP daily 14 days
  Brain weight: 0.47 ± 0.01 g
  Heart weight: 0.10 ± 0.02 g
  Kidneys weight: 0.28 ± 0.02 g
  Liver weight: 1.27 ± 0.11 g
  Lung weight: 0.34 ± 0.02 g
  Splean weight: 0.03 ± 0.01 g
[5]; doses as in Table S3
  Morphology or weight of internal organs (liver, spleen, kidneys, lungs, heart) versus untreated controls: no changes
[5]; doses as in Table S3, control mice gained mass in the last 5 days
  Total body weight course: No such increase occurred
